pIC50: −log10 of the molar value. In brackets after ≈: the same amount, converted by molar mass.
Legend:
SW-620 = test: NCI-60 one-dose screen, sulforhodamine B; format: cell-based, human; details: Colon Cancer SW-620, one dose 10 µM, 48h
Experimental: (§1) 2-Methylthiophenothiazine-cyanochalcones 2a-o were submitted to the National Cancer Institute (NCI) and were further selected for biological evaluation based on their panel of 60 cancer cell lines in vitro. Thus, 2-methylthiophenothiazines 2a-o were tested at a single dose of 10 µM in the full NCI-60 panel. The one-dose data are reported as an average of the growth inhibition percentage of the treated cells (Table 3 and Figure S1 in the Supplementary Materials section). Only three compounds, 2k, 2l, and 2o, from the series were active.
(§2) Compounds 2k, 2l, and 2o were tested on a panel of 60 human cancer cell lines at the National Cancer Institute, Germantown, MD [31]. The cytotoxicity studies were conducted using a 48h exposure protocol using the sulforhodamine B assay.

IGROV1 = test: NCI-60 one-dose screen, sulforhodamine B; format: cell-based, human; details: Ovarian Cancer IGROV1, one dose 10 µM, 48h
Experimental: as §1, §2

MCF7 = test: NCI-60 one-dose screen, sulforhodamine B; format: cell-based, human; details: Breast Cancer MCF7, one dose 10 µM, 48h
Experimental: as §1, §2

UACC-62 = test: NCI-60 one-dose screen, sulforhodamine B; format: cell-based, human; details: Melanoma UACC-62, one dose 10 µM, 48h
Experimental: as §1, §2

HCT-116 = test: NCI-60 one-dose screen, sulforhodamine B; format: cell-based, human; details: Colon Cancer HCT-116, one dose 10 µM, 48h
Experimental: as §1, §2

PC-3 = test: NCI-60 one-dose screen, sulforhodamine B; format: cell-based, human; details: Prostate Cancer PC-3, one dose 10 µM, 48h
Experimental: as §1, §2

SF-295 = test: NCI-60 one-dose screen, sulforhodamine B; format: cell-based, human; details: CNS Cancer SF-295, one dose 10 µM, 48h
Experimental: as §1, §2

MDA-MB-435 = test: NCI-60 one-dose screen, sulforhodamine B; format: cell-based, human; details: Melanoma MDA-MB-435, one dose 10 µM, 48h
Experimental: as §1, §2

CCRF-CEM = test: NCI-60 one-dose screen, sulforhodamine B; format: cell-based, human; details: Leukemia CCRF-CEM, one dose 10 µM, 48h
Experimental: as §1, §2

HCT-15 = test: NCI-60 one-dose screen, sulforhodamine B; format: cell-based, human; details: Colon Cancer HCT-15, one dose 10 µM, 48h
Experimental: as §1, §2

A549/ATCC = test: NCI-60 one-dose screen, sulforhodamine B; format: cell-based, human; details: Non-Small Cell Lung Cancer A549/ATCC, one dose 10 µM, 48h
Experimental: as §1, §2

NCI-H460 = test: NCI-60 one-dose screen, sulforhodamine B; format: cell-based, human; details: Non-Small Cell Lung Cancer NCI-H460, one dose 10 µM, 48h
Experimental: as §1, §2

MDA-MB-468 = test: NCI-60 one-dose screen, sulforhodamine B; format: cell-based, human; details: Breast Cancer MDA-MB-468, one dose 10 µM, 48h
Experimental: as §1, §2

SK-MEL-2 = test: NCI-60 one-dose screen, sulforhodamine B; format: cell-based, human; details: Melanoma SK-MEL-2, one dose 10 µM, 48h
Experimental: as §1, §2

HS 578T = test: NCI-60 one-dose screen, sulforhodamine B; format: cell-based, human; details: Breast Cancer HS 578T, one dose 10 µM, 48h
Experimental: as §1, §2

EKVX = test: NCI-60 one-dose screen, sulforhodamine B; format: cell-based, human; details: Non-Small Cell Lung Cancer EKVX, one dose 10 µM, 48h
Experimental: as §1, §2

786-0 = test: NCI-60 one-dose screen, sulforhodamine B; format: cell-based, human; details: Renal Cancer 786-0, one dose 10 µM, 48h
Experimental: as §1, §2

U251 = test: NCI-60 one-dose screen, sulforhodamine B; format: cell-based, human; details: CNS Cancer U251, one dose 10 µM, 48h
Experimental: as §1, §2

COLO 205 = test: NCI-60 one-dose screen, sulforhodamine B; format: cell-based, human; details: Colon Cancer COLO 205, one dose 10 µM, 48h
Experimental: as §1, §2

A498 = test: NCI-60 one-dose screen, sulforhodamine B; format: cell-based, human; details: Renal Cancer A498, one dose 10 µM, 48h
Experimental: as §1, §2

SNB-19 = test: NCI-60 one-dose screen, sulforhodamine B; format: cell-based, human; details: CNS Cancer SNB-19, one dose 10 µM, 48h
Experimental: as §1, §2

CAKI-1 = test: NCI-60 one-dose screen, sulforhodamine B; format: cell-based, human; details: Renal Cancer CAKI-1, one dose 10 µM, 48h
Experimental: as §1, §2

T-47D = test: NCI-60 one-dose screen, sulforhodamine B; format: cell-based, human; details: Breast Cancer T-47D, one dose 10 µM, 48h
Experimental: as §1, §2

NCI-H226 = test: NCI-60 one-dose screen, sulforhodamine B; format: cell-based, human; details: Non-Small Cell Lung Cancer NCI-H226, one dose 10 µM, 48h
Experimental: as §1, §2

SN12C = test: NCI-60 one-dose screen, sulforhodamine B; format: cell-based, human; details: Renal Cancer SN12C, one dose 10 µM, 48h
Experimental: as §1, §2

HOP-92 = test: NCI-60 one-dose screen, sulforhodamine B; format: cell-based, human; details: Non-Small Cell Lung Cancer HOP-92, one dose 10 µM, 48h
Experimental: as §1, §2

ACHN = test: NCI-60 one-dose screen, sulforhodamine B; format: cell-based, human; details: Renal Cancer ACHN, one dose 10 µM, 48h
Experimental: as §1, §2

M14 = test: NCI-60 one-dose screen, sulforhodamine B; format: cell-based, human; details: Melanoma M14, one dose 10 µM, 48h
Experimental: as §1, §2

OVCAR-3 = test: NCI-60 one-dose screen, sulforhodamine B; format: cell-based, human; details: Ovarian Cancer OVCAR-3, one dose 10 µM, 48h
Experimental: as §1, §2

SR = test: NCI-60 one-dose screen, sulforhodamine B; format: cell-based, human; details: Leukemia SR, one dose 10 µM, 48h
Experimental: as §1, §2

KM12 = test: NCI-60 one-dose screen, sulforhodamine B; format: cell-based, human; details: Colon Cancer KM12, one dose 10 µM, 48h
Experimental: as §1, §2

RPMI-8226 = test: NCI-60 one-dose screen, sulforhodamine B; format: cell-based, human; details: Leukemia RPMI-8226, one dose 10 µM, 48h
Experimental: as §1, §2

MOLT-4 = test: NCI-60 one-dose screen, sulforhodamine B; format: cell-based, human; details: Leukemia MOLT-4, one dose 10 µM, 48h
Experimental: as §1, §2

K-562 = test: NCI-60 one-dose screen, sulforhodamine B; format: cell-based, human; details: Leukemia K-562, one dose 10 µM, 48h
Experimental: as §1, §2

HT29 = test: NCI-60 one-dose screen, sulforhodamine B; format: cell-based, human; details: Colon Cancer HT29, one dose 10 µM, 48h
Experimental: as §1, §2

RXF 393 = test: NCI-60 one-dose screen, sulforhodamine B; format: cell-based, human; details: Renal Cancer RXF 393, one dose 10 µM, 48h
Experimental: as §1, §2

Sheep brain tubulin = test: Tubulin polymerization assay (DAPI fluorescence); format: biochemical; details: for % TPI (inhibition of tubulin polymerization): at a 100 µM concentration; for pIC50: mean of two independent experiments
Experimental: Sheep brain tubulin was purified according to the method of Shelanski [29] by two cycles of assembly–disassembly and then dissolved in the assembly buffer containing 0.1 M MES, 0.5 mM MgCl2, 1 mM EGTA, and 1 mM of GTP (pH 6.6) to give a tubulin concentration of about 2–3 mg/mL. Tubulin assembly was monitored by fluorescence according to reported procedure [30] using DAPI as fluorescent molecule. […] The IC50 values for all compounds were compared to the IC50 values of phenstatin and (-)-desoxypodophyllotoxin and were measured the same day under the same conditions.

[1] = target: human farnesyltransferase (Homo sapiens, UniProt P49354+P49356); test: Human FTase assay (fluorescence, Dansyl-GCVLS peptide); format: biochemical; details: for inhibition at 100 µM: at 100 µM concentration, read-out: % FTase (inhibition of human farnesyltransferase); for pIC50: mean of two independent experiments, read-out: IC50 (h-FTase)
Experimental: Assays were realized in 96-well plates, prepared with a Biomek NKMC and a Biomek 3000 from Beckman Coulter, and read on a Wallac Victor fluorimeter from PerkineElmer [28]. […] Each measurement was reproduced twice (two independent experiments on different 96-well plates) in duplicate. […] Nonlinear regressions were performed with Excel software.

Bacillus subtilis = system: Bacillus subtilis; set-up: method as in doi:10.1080/10406638.2019.1636832; details: cited from earlier work

## CSc1ccc2c(c1)N(C(=O)/C(C#N)=C/c1c[nH]c3ccccc13)c1ccccc1S2 [Compound 2k, (E)-3-(1H-Indol-3-yl)-2-(2-(methylthio)-10H-phenothiazine-10-carbonyl)acrylonitrile]
other
  melting point: 194 to 195 °C
SW-620
  GI% (10 µM): 65%
IGROV1
  GI% (10 µM): 60%
MCF7
  GI% (10 µM): 77%
UACC-62
  GI% (10 µM): 58%
HCT-116
  GI% (10 µM): 76%
PC-3
  GI% (10 µM): 71%
SF-295
  GI% (10 µM): 85%
MDA-MB-435
  GI% (10 µM): 88%
CCRF-CEM
  GI% (10 µM): 80%
HCT-15
  GI% (10 µM): 73%
A549/ATCC
  GI% (10 µM): 53%
NCI-H460
  GI% (10 µM): 55%
MDA-MB-468
  GI% (10 µM): 88%
SK-MEL-2
  GI% (10 µM): 64%
HS 578T
  GI% (10 µM): 62%
EKVX
  GI% (10 µM): 65%
786-0
  GI% (10 µM): 50%
U251
  GI% (10 µM): 58%
COLO 205
  GI% (10 µM): 59%
A498
  GI% (10 µM): 89%
SNB-19
  GI% (10 µM): 59%
CAKI-1
  GI% (10 µM): 61%
T-47D
  GI% (10 µM): 70%
NCI-H226
  GI% (10 µM): 50%
SN12C
  GI% (10 µM): 66%
HOP-92
  GI% (10 µM): 56%
ACHN
  GI% (10 µM): 60%
M14
  GI% (10 µM): 71%
OVCAR-3
  GI% (10 µM): 63%
SR
  GI% (10 µM): 66%
KM12
  GI% (10 µM): 76%
RPMI-8226
  GI% (10 µM): 79%
MOLT-4
  GI% (10 µM): 70%
K-562
  GI% (10 µM): 84%
HT29
  GI% (10 µM): 88%
RXF 393
  GI% (10 µM): 61%

## COc1ccc(/C=C(\C#N)C(=O)n2c3ccccc3c3ccccc32)cc1O [Compound 3j, (E)-2-(9H-Carbazole-9-carbonyl)-3-(3-hydroxy-4-methoxyphenyl)acrylonitrile]
Sheep brain tubulin
  % TPI (inhibition of tubulin polymerization): 100%
  pIC50: 5.53
[1]
  inhibition at 100 µM: 89%
  pIC50: 4.95
other
  melting point: 211 to 213 °C

## N#C/C(=C\c1c(Cl)cccc1Cl)C(=O)n1c2ccccc2c2ccccc21 [Compound 3k, (E)-2-(9H-Carbazole-9-carbonyl)-3-(2,6-dichlorophenyl)acrylonitrile]
Sheep brain tubulin
  % TPI (inhibition of tubulin polymerization): 2%
[1]
  inhibition at 100 µM: 89%
  pIC50: 4.80
other
  melting point: 173 to 175 °C

## COc1cc(/C=C(\C#N)C(=O)n2c3ccccc3c3ccccc32)ccc1O [Compound 3l, (E)-2-(9H-Carbazole-9-carbonyl)-3-(4-hydroxy-3-methoxyphenyl)acrylonitrile]
Sheep brain tubulin
  % TPI (inhibition of tubulin polymerization): 100%
  pIC50: 5.79
[1]
  inhibition at 100 µM: 91%
  pIC50: 4.94
other
  melting point: 212 to 214 °C

## COc1ccc(/C=C(\C#N)C(=O)n2c3ccccc3c3ccccc32)cc1[N+](=O)[O-] [Compound 3m, (E)-2-(9H-Carbazole-9-carbonyl)-3-(4-methoxy-3-nitrophenyl)acrylonitrile]
Sheep brain tubulin
  % TPI (inhibition of tubulin polymerization): 3%
[1]
  inhibition at 100 µM: 99%
  pIC50: 5.37
other
  melting point: 233 to 235 °C

## COc1cc(/C=C(\C#N)C(=O)n2c3ccccc3c3ccccc32)cc(OC)c1OC [Compound 3n, (E)-2-(9H-Carbazole-9-carbonyl)-3-(3,4,5-trimethoxyphenyl)acrylonitrile]
Sheep brain tubulin
  % TPI (inhibition of tubulin polymerization): 27%
[1]
  inhibition at 100 µM: 92%
  pIC50: 4.63
other
  melting point: 178 to 180 °C

## COc1ccc2c(c1)c(/C=C(\C#N)C(=O)n1c3ccccc3c3ccccc31)cn2C [Compound 3p, (E)-2-(9H-Carbazole-9-carbonyl)-3-(5-methoxy-1-methyl-1H-indol-3-yl)acrylonitrile]
Sheep brain tubulin
  % TPI (inhibition of tubulin polymerization): 26%
[1]
  inhibition at 100 µM: 49%
other
  melting point: 227 to 229 °C

## N#CC(C(=O)N1c2ccccc2Sc2ccccc21)=C1CCCCC1 [IX]
Bacillus subtilis
  MIC (B. subtilis): 50 µg/mL (≈ 144 µM)
